# Results taken from patent US20250012803A1, “METHODS FOR ASSESSING AN IMMUNE RESPONSE AND PREDICTING CANCER RECURRENCE AND ASSESSMENT OF CURRENT AND PRIOR CANCER STATUS” (priority 2021, published 2025).
# Values joined by “and” are separate entries in the source; they are usually repeats but may differ in a detail not shown here. Equal entries are not always repeated.
# Tests used:
# Format in all cases: in vivo, human
# [1] = system: breast cancer patients (DTH immune response to GP2); experiment: Delayed type hypersensitivity (DTH) skin test to GP2
# Procedure: (§1) Methods: Consented patients were randomized and scheduled to receive GLSI-100 (500 microgram (mcg) GP2: 125 mcg GM-CSF) or control (GM-CSF only) via 6 intradermal injections every 3-4 weeks as part of the Primary Immunization Series (PIS) for the first 6 months and 4 booster intradermal injections every 6 months thereafter. […] DTH skin tests were assessed at baseline and after the 6th dose with the orthogonal mean of each skin reaction measured 48-72 hours after injection using the sensitive ballpoint-pen method.
# (§2) A DTH reaction was used to assess in vivo immune responses in patients (n=150) prior to exposure to study medication and after 6 months of the first dose. The DTH orthogonal mean was measured 48-72 hours after injection using the sensitive ballpoint-pen method. DTH reactions after the PIS were greater compared to baseline DTH reactions.
# as §2, with “method. GP2” for “method.”, “response increases in patients” for “reactions”, “treatment with GLSI-100.” for “the PIS were greater compared to baseline DTH reactions.”
# Injection site reactions (ISR) were measured 48-72 hours after injection. Delayed-type hypersensitivity (DTH) to GP2 was performed at baseline and after 6 months of treatment. For the DTH test, 0.5 mL consisting of 100 mcg of GP2 reconstituted in bacteriostatic saline for injection was placed intradermally. The DTH reaction was measured 48-72 hours after injection.
# The orthogonal mean of the largest diameter of the injection site was measured 48-72 hours after injection. A DTH reaction was used to assess in vivo immune responses in patients prior to exposure to study medication and after 6 months of the first dose. The DTH orthogonal mean was measured 48-72 hours after DTH placement using the sensitive ballpoint-pen method. DTH reactions increase after the PIS compared to baseline DTH reactions.
# GP2 DTH skin tests were placed at baseline and after the 6th dose. After 48-72 hours, the largest perpendicular diameters of induration were measured and the orthogonal mean was calculated. Induration of over 5 mm was considered a positive response. The relationship between prognostic factors such as demographic and disease characteristics and the baseline DTH response were investigated by logistic regression.
# [2] = system: node-positive and high-risk node-negative breast cancer patients with tumors expressing any degree of HER2; experiment: Phase IIb trial (NCT00524277): disease-free survival / breast cancer recurrence
# Procedure: Background for Examples 1-5: Delayed type hypersensitivity (DTH) skin tests in the randomized, active-controlled, single-blinded, multicenter Phase IIb trial investigating GLSI-100 (GP2+GM-CSF) administered in the adjuvant setting to node-positive and high-risk node-negative breast cancer patients with tumors expressing any degree of HER2 (immuno-histochemistry [IHC] 1-3+) (NCT00524277) were analyzed. The trial enrolled HLA-A*02 patients randomized to receive GLSI-100 versus GM-CSF alone. The trial's primary objective was to determine if treatment with GLSI-100, a HER2-derived peptide, reduces recurrence rates.
# as §1
# Results: The study enrolled 180 patients across 16 clinical sites with both HER2 3+ positive and low HER2 expressors (1-2+). […] Injection site reactions were common, occurring in almost 100% of patients treated with either GLSI-100 or GM-CSF alone. […]
# [3] = system: breast cancer patients; experiment: Phase IIb trial safety / tolerability; details: patients treated with either GLSI-100 or GM-CSF alone
# Procedure: as §1
# Results: The study enrolled 180 patients across 16 clinical sites with both HER2 3+ positive and low HER2 expressors (1-2+). […] Injection site reactions were common, occurring in almost 100% of patients treated with either GLSI-100 or GM-CSF alone. Previous publications have reported the increase in DTH response reported among patients after treatment with GLSI-100.
# [4] = system: breast cancer patients (injection site); experiment: Injection site reaction (ISR) measurement, orthogonal mean
substance,measurement,setting,value
Ile Ile Ser Ala Val Val Gly Ile Leu (IISAVVGIL) [GP2],"patients reacting to GP2 at baseline (positive DTH, induration of 5 mm or greater)","[1]; baseline, prior to any GP2 treatment, all patients (33/145)",22.8%
same,patients with positive baseline DTH response to GP2 in subgroup with later breast cancer recurrence,"[1]; baseline, recurrence subgroup (8/22)",36.4%
same,6 Month DTH (mm),"[1]; individual recurring patients, after 6 months of treatment",24 mm and 20 mm and 16 mm and 15 mm and 3 mm and 0 mm and 25 mm
same,Baseline DTH (mm),"[1]; individual recurring patients, prior to exposure to study medication",9 mm and 8 mm and 7 mm and 0 mm (8×) and 43 mm and 13 mm
same,Time to Recurrence,[2]; individual patients who experienced breast cancer recurrence,28 days and 99 days and 66 days and 820 days and 265 days and 498 days and 507 days and 366 days and 590 days and 141 days and 79 days and 76 days and 1295 days
granulocyte-macrophage colony-stimulating factor [GM-CSF],patients with injection site reactions,[3],~100%
same,median orthogonal mean induration of injection site reaction,"[4]; after a single dose, p=0.0036",7.8 mm
same,"average difference in injection site reaction, HER2 3+ vs HER2 1-2+ control patients","[4]; over all 10 doses, HER2 3+ smaller",43.1 mm
same,DTH reaction after the Primary Immunization Series (orthogonal mean),"[1]; after 6 months, measured 48-72 hours after injection, p=0.009",0.0 mm
same,Kaplan-Meier estimated 5-year disease-free survival (DFS) rate,"[2]; HER2 3+ patients followed 6 months or more and disease-free over first 6 months, 5 years follow-up, p=0.0338",89.4%
